Earlier results as cited in patent US20210228483A1, “LOW GLYCEMIC GUMMY COMPOSITION AND METHODS OF MAKING AND USING THEREOF” (Seattle Gummy Company, priority 2018, published 2021).

Tests used:
blood glucose levels = conditions: as shown in FIG. 3 (trehalose) and FIG. 4 (isomaltulose)
[1] = in vivo

Structure (SMILES) | spike in glucose levels (blood glucose levels) | GI value (glycemic index) [1]
OC[C@H]1O[C@H](OC[C@H]2OC(O)(CO)[C@@H](O)[C@@H]2O)[C@H](O)[C@@H](O)[C@@H]1O (stereo partly shown) [isomaltulose] | does not cause a spike in glucose levels | about 30
OC[C@H]1O[C@H](O[C@H]2O[C@H](CO)[C@@H](O)[C@H](O)[C@H]2O)[C@H](O)[C@@H](O)[C@@H]1O [trehalose] | does not cause a spike in glucose levels | –
OC[C@H]1O[C@@](CO)(O[C@H]2O[C@H](CO)[C@@H](O)[C@H](O)[C@H]2O)[C@@H](O)[C@@H]1O [sucrose, reference compound] | – | 63
